Data: patent US11320422B2, “Inhibition of protein degradation for improved production” (LONZA LTD, priority 2016, dated 2022)
Where “and” joins values, the source holds several entries; their conditions need not be identical. Equal values may be shown once. Where a SMILES comes first, the peptide text is derived from it. The star is where a group is joined. Cbz = O=C(OCc1ccccc1)*

How the values were obtained:
[1] = test system: GS KO Lonza host cells expressing cB72.3 monoclonal antibody; assay: Cell line construction with MSX plus proteasome or ERAD inhibitors (Example 6), cB72.3 titre by Octet and western blot; assay type: cell-based, Chinese hamster; conditions: for cell specific productivities compared to MSX control pools: MG-132 particularly 31.25 nM, various concentrations of epoxomicin and eeyarestatin; for monoclonal antibody titre higher than control pool: 31.25 nM MG-132 and 37.5 μM MSX, 168 h of batch culture
Method: Multiple electroporations with 20 μg of linearized GS cB72.3 monoclonal antibody containing construct with 1×10^7 viable GS KO Lonza host cells were performed and pooled. This pool was then set up into 10 ml cultures, each containing approximately 0.25×10^6 cells and 10 μg DNA, and immediately placed in a static incubator at 37° C. with 5% CO2. Cell media consisted of commercially available CD-CHO media without glutamine and the addition of MSX and inhibitors as outlined below. 24 hours post transfection, MSX was added to the media to make the culture volume up to 15 ml and provide a final MSX concentration of 37.5 μM. The different inhibitors were then added to the pools a further 24 hours after the addition of MSX. A range of concentrations were added for each inhibitor to give the final concentrations in the flasks as described in FIG. 13. Only one inhibitor treatment was performed per flask (no combined treatments) and all were performed in combination with 37.5 μM MSX as outlined in FIG. 13.
The cell pools were then left in the static incubator at 37° C. and 5% CO2 until the viable cell concentration in the flask reached ˜0.2×10^6 cells/ml. When this viable cell number was achieved, cell pools were moved into 125 mL Erlenmeyer shake flasks and cultured in a 20 mL volume of CD-CHO including MSX and the appropriate concentration of inhibitor at 37° C. under a 5% CO2 in air environment with shaking at 140 rpm. 24 out of 33 transfections/pools were eventually moved across to shake flasks as they exceeded the required viable cell concentration described above.
Cell pools were then cultured in the presence of the appropriate inhibitor (and inhibitor concentration and 37.5 μM MSX) in 20 mL of CD-CHO for several passages (each being seeded at 0.2×10^6 viable cells/ml) before batch cultures were set up for each to assess the growth of the pool and to sample for product concentration over the duration of culture. For this purpose 20 ml batch cultures (seeded at 0.2×10^6 viable cells/ml) were sampled at 48, 96 and 168 hours for growth and titre information. The cell pools were also then passaged for an additional two passages in the absence of the inhibitors (but containing MSX) to determine if any changes in growth or productivity were observed, i.e. were the improved culture titres only maintained if the inhibitor was continually present.

[2] = test system: ER translocation; conditions: in vivo; cited from earlier work
[3] = test system: recombinant CHO antibody producing cell line (CH0149); assay: Initial assessment of inhibitor concentrations on recombinant CHO cell line growth (viable cell number, culture viability, ViCell); assay type: cell-based, Chinese hamster
Method: (§1) 96 deep well plates (Nunc) were seeded at 4×10^6 cells/ml at 300 μl per well for analysis of proteasome and ERAD inhibitors. Triplicate wells were prepared for each inhibitor for each of the panel of cell lines. […] 100 μl of the well volume was combined with 900 μl PBS and a cell count performed using the ViCell apparatus. The remaining 200 μl was centrifuged at 1000 rpm for 5 minutes and the supernatant and pellet stored at −20° C. prior to further analysis.
(§2) Initial assessment was performed across two experiments using one model recombinant CHO antibody producing cell line (CH0149) to determine the appropriate concentrations of each inhibitor to use for the assessment of the full panel (FIGS. 1A-1C and 2A-2F).

[4] = test system: GS-KO CHO host cell line; assay: Host selection/adaptation in presence of inhibitors, then transient transfection with cB72.3 (Example 8); assay type: cell-based, Chinese hamster
Method: In order to ascertain if adapted/selected host cells with the ability to produce enhanced recombinant protein yields and quality could be generated by culturing the Lonza GS-KO CHO host cell line in the presence of the protein degradation inhibitors, the GS-KO host cell line was cultured in the presence of various protein degradation inhibitors for a series of passages. The host cell line was therefore cultured in 20 ml CD-CHO+6 mM glutamine+the appropriate inhibitors as outlined below in 125 ml Erlenmeyer shake flasks at 37° C. under a 5% CO2 in air environment with shaking at 140 rpm. At each passage the new culture was seeded at 0.2×10^6 viable cells/ml. Cells were passaged when the cell number exceeded 1×10^6 viable cells per mL.
However, cells in the presence of this concentration of MG132 were subjected to 4 passages at this concentration and then a further 2 in the absence of the drug. At this time there was sufficient cells for the transfection following passage of the cells without the drug (2nd experiment of the two) to be undertaken.
Transient transfection of the emerging cell host pools described above was then performed via electroporation with 20 μg of the model cB72.3 plasmid and 1×10^7 viable cells and the cells placed in 20 ml of fresh CD-CHO media plus 6 mM glutamine in 125 ml Erlenmeyer shake flasks and cultured at 37° C. under a 5% CO2 in air environment with shaking at 140 rpm. This was undertaken for the host cell pools that had been in the presence of the inhibitors continually and those that had been passaged for an additional two passages in the absence of the inhibitors. Samples were taken from these batch cultures to monitor growth and antibody titre at 48, 96 and 168 hours post-transfection.

[5] = test system: CHOK1 GS-KO cells producing antibody A; assay: Cell line construction with MSX plus proteasome inhibitor selection (Example 5), growth and antibody concentration by ELISA / Protein A HPLC; assay type: cell-based, Chinese hamster
Method: The electroporation was performed in the GSKO suspension cell line. A count was performed of the culture in mid exponential phase and the remaining culture centrifuged at 1000 rpm and the supernatant removed. 1×10^7 cells were required per electroporation cuvette in a volume of 700 μl. Therefore, the pellet was resuspended to achieve the concentration of cells for the number of electroporations required. Electroporations were performed with 20 μg linearized plasmid at 300 V, a capacitance of 900 μF and using cuvettes with a 4 mm gap. Each cuvette was added to 20 ml of fresh media with 2 ml of that volume used to rinse out the cuvette. For the cell line construction experiment, then all electroporations were pooled together to give a final volume of 300 ml. This was thoroughly mixed and then distributed in 10 ml volumes between 30×T75 tissue culture flasks. The flasks were then incubated statically at 36.5° C. with 5% CO2. 24 hours after the transfection, the glutamine synthetase inhibitor (MSX) was added to provide selection of the cells successfully taking up the plasmid and expressing the selection marker GS. 5 ml volumes of the MSX stocks with CD-CHO media were added to give either a final culture concentration of either 25, 37.5 or 50 μM MSX. The addition of the proteasome inhibitors was then performed at the appropriate time-point following MSX selection as determined by the design of experiments layout detailed in Table 3. Filter sterilized DMSO was added as a control where no drug was required in the combinations. Cultures were then incubated statically at 36.5° C. and 5% CO2 for approximately two weeks following addition of MSX. […] Once a viable cell concentration of at least 0.2×10^6 cells/ml was achieved, the cultures were moved into 20 ml shake flask cultures at 36.5° C. and 5% CO2 with shaking at 140 rpm. From this point onwards routine sub-culture was performed every 3-4 days.
AffiniPure F(ab′)2 fragment goat anti-human IgG Fc fragment specific (minimal cross-reaction to bovine, horse, mouse serum proteins) (Jackson ImmunoResearch Laboratories Inc) was diluted in coating buffer (15 mM Na2CO3 and 35 mM NaHCO3, pH 9.7) to give a concentration of […]. 100 μl of the stock was then used to coat each well of 96 well plate (Nunc). Plates were covered with foil and stored at 4° C. overnight. […] Plates were again washed and ready-made TMB substrate (Cell signalling technology #7004) was added (100 μl/well). […] The optical density of each well was then measured at 450 nm. The concentration of the supernatant samples were then determined from the standard curve of the known concentrations of IgG. […]

[6] = Initial assessment of inhibitor concentrations on recombinant CHO cell line growth (viable cell number, culture viability, ViCell); assay type: cell-based, Chinese hamster; conditions: Chinese hamster
Method: as §1, §2

[7] = test system: apoptosis; conditions: cited from earlier work
[8] = immediately after treatment with inhibitors
[9] = two passages in the absence of inhibitors
[10] = host initially cultured with Eeyarestatin I or 6.25 nM Epoxomicin, then 2 passages without inhibitor

## CC1(C)C(N(O)C(=O)Nc2ccc(Cl)cc2)N(c2ccc(Cl)cc2)C(=O)N1CC(=O)N/N=C/C=C/c1ccc([N+](=O)[O-])o1 (stereo not shown) [eeyarestatin I]
[1]; [8]
  cell specific productivities compared to MSX control pools: enhanced
[1]; [9]
  cell specific productivities compared to MSX control pools: enhanced
[2]
  concentration sufficient to block ER translocation: 8 µM
[3]; 1 μM, 48 hours after addition, two experiments
  decrease in viable cell number: 15-30%
[3]; 10 μM, two experiments
  effect on the culture viability parameters: consistently showed an effect
[4]; 0.1 μM in culture media for selection/adaptation of host
  cell specific productivity and titre: increase in cell specific productivity and titre
[4]; host cultured with 0.1 μM Eeyarestatin I before transfection
  transient antibody titres versus DMSO control cells: higher transient titres
[4]; [10]
  transient antibody titres versus DMSO control cells: higher transient titres

## CC[C@H](C)[C@H](NC(=O)[C@H]([C@@H](C)CC)N(C)C(C)=O)C(=O)N[C@H](C(=O)N[C@@H](CC(C)C)C(=O)[C@@]1(C)CO1)[C@@H](C)O [epoxomicin]
[5]; 0.025 μM epoxomicin and 37.5 μM MSX, 192 hours of batch culture
  increase in antibody concentration over control pools generated with MSX alone: 3-7 fold
[5]; pool CLC18 constructed with 0.025 μM epoxomicin and 37.5 μM MSX, batch culture without inhibitor
  maximum viable cell number: 5.328×10^6 cells/ml
[1]; [8]
  cell specific productivities compared to MSX control pools: enhanced
[1]; [9]
  cell specific productivities compared to MSX control pools: enhanced
[3]; 0.05 μM, 48 hours after addition, two experiments
  decrease in viable cell numbers: 30-50%
[3]; 0.01, 0.005 and 0.001 μM
  detrimental effects over time: not showing any detrimental effects until 72 hours
  viable cell number: increase in viable cell number
[3]; 0.5 and 1 μM, 48 hours after addition, compared to control
  decrease in viable cell number: 90%
[4]; [10]
  transient antibody titres versus DMSO control cells: higher transient titres

## CC(C)C[C@@H](C=O)NC(=O)[C@H](CC(C)C)NC(=O)[C@H](CC(C)C)NC(=O)OCc1ccccc1 [MG-132, Z-Leu-Leu-Leu-al] (Cbz-Leu-Leu-Leu-aldehyde)
[5]; 0.0625 μM MG-132 and 37.5 μM MSX, 192 hours of batch culture
  increase in the amount of antibody in cell culture supernatant over MSX alone pools: ~4 fold
[5]; concentrations used in Example 2
  viable cell counts following electroporation and cell line construction: poor viable cell counts
[1]; cells continually cultured with inhibitor
  monoclonal antibody titre higher than control pool: ~4 fold
[1]; two passages in the absence of inhibitor
  monoclonal antibody titre higher than control pool: ~4 fold
[1]; alongside 37.5 μM MSX
  final inhibitor concentrations that resulted in the emergence of cell pools: 15.625 nM and 31.25 nM
[1]; [8]
  cell specific productivities compared to MSX control pools: enhanced
[1]; [9]
  cell specific productivities compared to MSX control pools: enhanced
[3]; 0.1 μM
  effect on culture viability and cell numbers: less of an effect
[3]; 0.5 and 1 μM, 48 hours after addition
  reduction in the culture viability to: approximately 50%
[3]; 5 and 10 μM, 48 hours after addition
  cell numbers and culture viability: dramatically reduced
[6]; 0.5 and 1 μM, 48 hours after addition, compared to control, read-out: decrease in viable cell number
  cytotoxicity at 48 h: ~40%
[6]; read-out: reduction of cell concentration and culture viability compared to control
  cytotoxicity at 0.5 μM: 30 to 60%
[4]; 125 nM, transfection immediately after culture with drug
  host cell growth in presence of inhibitor: not sufficient cells
[7]
  concentration shown to induce apoptosis: 1.5 µM
